From patent publication US12649751B2 (Arcus Biosciences, Inc., priority 2022, dated 2026)
Read-outs that look alike come from different tables or passages of the source.

Assays:
[1] = test system: p-SLP-76 (Ser376) in Jurkat cells; assay: pSLP76 Cellular Assay (AlphaLISA SureFire Ultra p-SLP-76 (Ser376), anti-CD3 activated Jurkat cells); format: cell-based; conditions: Homo sapiens; pSLP76 (Ser376) AlphaLISA, anti-CD3 activated Jurkat cells; read-out: Cellular Potency
How it was run: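 Jurkat cells, serum-starved overnight in Opti-MEM then in HBSS, preincubated 1 h at 37 °C with 22-point 2-fold compound dilutions, then stimulated with anti-CD3 (0.025 mg/ml added solution) for 45 min. Lysate p-SLP-76 (Ser376) measured by AlphaLISA at 570 nm; IC50 from 4-parameter logistic fit.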

HPK1 = HPK1 (Homo sapiens, UniProt Q92918); assay: HPK1 Biochemical Assay (ADP-Glo luminescence; low ATP 10 μM or high ATP 200 μM); conditions: HPK1 ADP-Glo assay
[2] = high ATP (200 μM ATP, 5 nM HPK1), read-out: Biochemical Potency (high ATP)
[3] = low ATP (10 μM ATP, 2 nM HPK1), read-out: Biochemical Potency (low ATP)

Chain of HPK1 (Q92918 whole entry, species assumed): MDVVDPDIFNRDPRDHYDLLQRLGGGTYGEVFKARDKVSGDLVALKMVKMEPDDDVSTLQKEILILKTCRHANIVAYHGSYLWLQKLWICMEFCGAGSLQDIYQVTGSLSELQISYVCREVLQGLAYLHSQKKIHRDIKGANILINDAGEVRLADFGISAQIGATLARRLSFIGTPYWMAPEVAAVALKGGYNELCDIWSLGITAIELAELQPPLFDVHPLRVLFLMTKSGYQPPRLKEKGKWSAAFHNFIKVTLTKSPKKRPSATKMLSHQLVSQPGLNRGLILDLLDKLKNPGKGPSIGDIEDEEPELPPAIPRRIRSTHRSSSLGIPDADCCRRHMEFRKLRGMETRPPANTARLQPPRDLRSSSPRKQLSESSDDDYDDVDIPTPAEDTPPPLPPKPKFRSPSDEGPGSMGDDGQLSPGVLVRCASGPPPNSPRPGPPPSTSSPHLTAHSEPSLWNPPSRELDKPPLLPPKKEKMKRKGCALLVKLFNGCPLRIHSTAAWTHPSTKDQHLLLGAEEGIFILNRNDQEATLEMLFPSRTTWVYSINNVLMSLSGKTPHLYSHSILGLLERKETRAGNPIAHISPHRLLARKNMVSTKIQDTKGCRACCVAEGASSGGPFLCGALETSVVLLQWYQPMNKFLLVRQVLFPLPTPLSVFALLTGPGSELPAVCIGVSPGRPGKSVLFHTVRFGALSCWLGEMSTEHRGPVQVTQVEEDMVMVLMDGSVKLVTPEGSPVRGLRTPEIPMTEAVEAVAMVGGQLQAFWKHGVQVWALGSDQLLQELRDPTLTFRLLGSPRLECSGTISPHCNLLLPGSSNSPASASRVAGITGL

Row | IC50 [1] | IC50 (HPK1; [2]) | IC50 (HPK1; [3]) | SMILES
1 | 100 to 1000 nM | < 100 nM | – | CCN1C[C@@H]2C[C@H]1CN2c1nc(C)cc(Nc2cc3nc(-c4cccc(C(=O)N(C)C5CCN(S(C)(=O)=O)CC5)c4)sc3cn2)n1 [Example 311, N-(1-mesyl-4-piperidyl)-N-methylm-[6-(2-{(1S,4S)-5-ethyl-2,5-diazabicyclo[2.2.1]hept-2-yl}-6-methyl-4-pyrimidinylamino)-3-thia-1,5-diaza-2-indenyl]benzamide]
2 | 1000 to 5000 nM | 100 to 1000 nM | – | Cc1cc(Nc2cc3nc(-c4cccc5c4CCCN5S(C)(=O)=O)sc3cn2)nc(N2C[C@@H]3C[C@H]2CN3C)n1 [Example 312, N-[2-(1-methanesulfonyl-1,2,3,4-tetrahydroquinolin-5-yl)-[1,3]thiazolo[5,4-c]pyridin-6-yl]-6-methyl-2-[(1S,4S)-5-methyl-2,5-diazabicyclo[2.2.1]heptan-2-yl]pyrimidin-4-amine]
3 | < 100 nM | < 100 nM | – | Cc1cc(Nc2cc3nc(-c4cccc5c4CCCN5)sc3cn2)nc(N2C[C@@H]3C[C@H]2CN3C)n1 [Example 313, 6-methyl-2-[(1S,4S)-5-methyl-2,5-diazabicyclo[2.2.1]heptan-2-yl]-N-[2-(1,2,3,4-tetrahydroquinolin-5-yl)-[1,3]thiazolo[5,4-c]pyridin-6-yl]pyrimidin-4-amine]
4 | 1000 to 5000 nM | < 100 nM | < 100 nM | Cc1cccnc1-c1nc2cc(Nc3cccc(C4(F)CC5CC4CN5)n3)ncc2s1 (stereo not shown) [Example 315, {6-(5-fluoro-2-azabicyclo[2.2.1]hept-5-yl)-2-pyridyl}[2-(3-methyl-2-pyridyl)-3-thia-1,5-diaza-6-indenyl]amine]
5 | < 100 nM | < 100 nM | – | Cc1cc(Nc2cc3nc(-c4cncc(-c5ncccc5C)c4)sc3cn2)nc(N2C[C@@H]3C[C@H]2CN3CCO)n1 [Example 318, 2-[(1S,4S)-5-{6-methyl-4-[2-(3-methyl-2,3′-bipyridyl-5′-yl)-3-thia-1,5-diaza-6-indenylamino]-2-pyrimidinyl}-2,5-diazabicyclo[2.2.1]hept-2-yl]ethanol]
6 | 100 to 1000 nM | < 100 nM | < 100 nM | Cc1cccnc1-c1nc2cc(Nc3nc(N4C[C@@H]5C[C@H]4CN5)ccc3F)ncc2s1 [Example 320]
7 | 100 to 1000 nM | < 100 nM | – | CCN1C[C@@H]2C[C@H]1CN2c1nc(Nc2cc3nc(-c4cccc(C(=O)N5CCC(F)CC5)c4)sc3cn2)ccc1C [Example 321]
8 | 100 to 1000 nM | < 100 nM | – | CCN1C[C@@H]2C[C@H]1CN2c1nc(Nc2cc3nc(-c4cnn(C)c4)sc3cn2)ccc1F [Example 322]
9 | 100 to 1000 nM | < 100 nM | < 100 nM | Cc1cccnc1-c1nc2cc(Nc3cc(C(F)(F)F)cc(N4C[C@@H]5C[C@H]4CN5C)n3)ncc2s1 [Example 323]
10 | 100 to 1000 nM | – | < 100 nM | Cc1cccnc1-c1nc2cc(Nc3ccc4c(n3)CN(C)CC4)ncc2s1 [Example 327]
11 | 5000 to 25000 nM | – | 100 to 1000 nM | CN1CCc2ccc(Nc3cc4nc(-c5c(F)cccc5F)sc4cn3)cc2CC1 [Example 328]
12 | 5000 to 25000 nM | – | < 100 nM | Cc1c(N)cncc1-c1nc2cc(Nc3ccc4c(c3)CCC(N3CCCC3)CC4)ncc2s1 (stereo not shown) [Example 330]
13 | 1000 to 5000 nM | 100 to 1000 nM | – | Cc1cc(Nc2cc3nc(-c4cccc(C(=O)N(C)C)c4)sc3cn2)nc(N2C[C@@H]3C[C@H]2CN3C2CCN(S(C)(=O)=O)CC2)n1 [Example 331]
14 | 1000 to 5000 nM | < 100 nM | – | CC(=O)N1CCC(N2C[C@@H]3C[C@H]2CN3c2nc(C)cc(Nc3cc4nc(-c5cccc(C(=O)N(C)C)c5)sc4cn3)n2)CC1 [Example 332]
15 | 100 to 1000 nM | < 100 nM | – | CN1C[C@@H]2C[C@H]1CN2c1cc(Cl)cc(Nc2cc3nc(-c4ccnc(C(C)(C)O)c4)sc3cn2)n1 [Example 333]
16 | < 100 nM | – | < 100 nM | Cc1cccnc1-c1nc2cc(Nc3cc(F)cc(N4C[C@@H]5C[C@H]4CN5)n3)ncc2s1 [Example 334]
17 | 100 to 1000 nM | < 100 nM | – | CCN1C[C@@H]2C[C@H]1CN2c1nc(C)cc(Nc2cc3nc(-c4cnn(Cc5ccccc5)c4)sc3cn2)n1 [Example 336]
18 | 100 to 1000 nM | < 100 nM | – | CCN1C[C@@H]2C[C@H]1CN2c1nc(Nc2cc3nc(-c4ccnc(C(C)(C)O)c4)sc3cn2)cc(C)c1F [Example 337]
19 | 1000 to 5000 nM | < 100 nM | – | CCN1C[C@@H]2C[C@H]1CN2c1nc(C)cc(Nc2cc3nc(-c4cccc(N5CCC(F)CC5)c4)sc3cn2)n1 [Example 338]
20 | 100 to 1000 nM | < 100 nM | – | CCN1C[C@@H]2C[C@H]1CN2c1nc(C)cc(Nc2cc3nc(-c4cccc(S(=O)(=O)CC(C)C)c4)sc3cn2)n1 [Example 339]
21 | < 100 nM | < 100 nM | – | CCN1C[C@@H]2C[C@H]1CN2c1nc(C)cc(Nc2cc3nc(-c4cccc(S(=O)(=O)C5CC5)c4)sc3cn2)n1 [Example 340]

Row | IC50 [1] | IC50 (HPK1; [2]) | IC50 (HPK1; [3]) | SMILES
22 | 100 to 1000 nM | < 100 nM | – | CCN1C[C@@H]2C[C@H]1CN2c1nc(C)cc(Nc2cc3nc(-c4cccc(S(=O)(=O)N5CCCC5)c4)sc3cn2)n1 [Example 341]
23 | 100 to 1000 nM | < 100 nM | – | CCN(CC)C(=O)c1cccc(-c2nc3cc(Nc4cc(C)nc(N5C[C@@H]6C[C@H]5CN6CC)n4)ncc3s2)c1 [Example 342]
24 | 1000 to 5000 nM | < 100 nM | – | CCN(CC)S(=O)(=O)c1cc(C)cc(-c2nc3cc(Nc4cc(C)nc(N5C[C@@H]6C[C@H]5CN6CCO)n4)ncc3s2)c1 [Example 343]
25 | < 100 nM | < 100 nM | – | Cc1cc(Nc2cc3nc(-c4cccc(S(=O)(=O)N5CCCC5)c4)sc3cn2)nc(N2C[C@@H]3C[C@H]2CN3CCO)n1 [Example 344]
26 | < 100 nM | < 100 nM | – | Cc1cc(-c2nc3cc(Nc4cc(C)nc(N5C[C@@H]6C[C@H]5CN6CCO)n4)ncc3s2)cc(N2CCCC2=O)c1 [Example 345]
27 | < 100 nM | < 100 nM | – | Cc1cc(C(=O)N(C)C)cc(-c2nc3cc(Nc4cc(C)cc(N5C[C@@H]6C[C@H]5CN6CCO)n4)ncc3s2)c1 [Example 347]
28 | < 100 nM | < 100 nM | – | Cc1cc(Nc2cc3nc(-c4cnn(CC5CC5)c4)sc3cn2)nc(N2C[C@@H]3C[C@H]2CN3CCO)c1 [Example 348]
29 | 100 to 1000 nM | < 100 nM | – | Cc1cc(Nc2cc3nc(-c4cccc(N5CCOCC5)c4)sc3cn2)nc(N2C[C@@H]3C[C@H]2CN3CCO)n1 [Example 349]
30 | < 100 nM | < 100 nM | – | Cc1cc(Nc2cc3nc(-c4cccc5c4C(C)(C)C(=O)N5)sc3cn2)nc(N2C[C@@H]3C[C@H]2CN3CCO)n1 [Example 350]
31 | < 100 nM | < 100 nM | – | COCc1c(-c2nc3cc(Nc4cc(C)nc(N5C[C@@H]6C[C@H]5CN6C)n4)ncc3s2)cnn1C [Example 351]
32 | < 100 nM | < 100 nM | – | Cc1cc(Nc2cc3nc(-c4cccc(C(=O)N5CCCCC5)c4)sc3cn2)nc(N2C[C@@H]3C[C@H]2CN3CCO)n1 [Example 352]
33 | < 100 nM | < 100 nM | – | Cc1cc(Nc2cc3nc(-c4ccnc(C(C)C)c4)sc3cn2)nc(N2C[C@@H]3C[C@H]2CN3CCO)n1 [Example 354]
34 | 100 to 1000 nM | < 100 nM | – | Cc1cc(Nc2cc3nc(-c4cnn(C(C)(C)C#N)c4)sc3cn2)nc(N2C[C@@H]3C[C@H]2CN3CCO)n1 [Example 355]
35 | 1000 to 5000 nM | 100 to 1000 nM | – | Cc1cc(Nc2cc3nc(-c4cnn(CC5CC5)c4)sc3cn2)nc(N2C[C@@H]3C[C@H]2CN3CC(=O)N(C)C)n1 [Example 356]
36 | 100 to 1000 nM | < 100 nM | – | OCCN1C[C@@H]2C[C@H]1CN2c1nccc(Nc2cc3nc(-c4cnn(CC5CC5)c4)sc3cn2)n1 [Example 357]
37 | < 100 nM | < 100 nM | – | CCn1cc(-c2nc3cc(Nc4cc(C)nc(N5C[C@@H]6C[C@H]5CN6CCO)n4)ncc3s2)cn1 [Example 358]
38 | < 100 nM | < 100 nM | – | Cc1cc(Nc2cc3nc(-c4ncc(C)o4)sc3cn2)nc(N2C[C@@H]3C[C@H]2CN3CCO)n1 [Example 359]
39 | 1000 to 5000 nM | < 100 nM | – | Cc1cc(Nc2cc3nc(-c4cccn5nccc45)sc3cn2)nc(N2C[C@@H]3C[C@H]2CN3CCO)n1 [Example 360]
40 | 100 to 1000 nM | < 100 nM | – | Cc1cc(Nc2cc3nc(-c4cncc(C5CC5)c4)sc3cn2)nc(N2C[C@@H]3C[C@H]2CN3CCO)n1 [Example 361]
41 | 1000 to 5000 nM | < 100 nM | – | Cc1cc(Nc2cc3nc(-c4cccc(C#Cc5cnn(C)c5)c4)sc3cn2)nc(N2C[C@@H]3C[C@H]2CN3CCO)n1 [Example 362]

Row | SMILES | IC50 [1] | IC50 (HPK1; [2]) | IC50 (HPK1; [3])
42 | Cc1cccnc1-c1nc2cc(Nc3ccc4c(n3)[C@](C)(N)CCC4)ncc2s1 [Example 316, (8R)-8-methyl-N2-[2-(3-methylpyridin-2-yl)-[1,3]thiazolo[5,4-c]pyridin-6-yl]-5,6,7,8-tetrahydroquinoline-2,8-diamine] | 1000 to 5000 nM | – | 1000 to 5000 nM
43 | Cc1cccnc1-c1nc2cc(Nc3ccc4c(n3)[C@H](N)CCC4)ncc2s1 [Example 317, (8R)-N2-[2-(3-methylpyridin-2-yl)-[1,3]thiazolo[5,4-c]pyridin-6-yl]-5,6,7,8-tetrahydroquinoline-2,8-diamine] | 1000 to 5000 nM | – | < 100 nM
44 | Fc1cccc(F)c1-c1nc2cc(Nc3ccc4c(c3)CC[C@@H](N3C5COCC3C5)CC4)ncc2s1 [Example 329] | 5000 to 25000 nM | – | 100 to 1000 nM
